In US20220387608A1, “ADRENOMEDULLIN-ANALOGUES FOR LONG-TERM STABILIZATION AND THEIR USE” (Bayer Aktiengesellschaft, priority 2019, published 2022):

Experiment: Stability determination of TAMRA-labelled adrenomedullin analogues in human blood plasma
Assay type: in vitro ADME
Conditions: 37° C., 10^-5 M, slow-decay phase half-life, read-out: t1/2 (slow) (converted)
Description: The stability of the peptides was investigated using fluorescently labeled analogues, which were prepared as described above.
The TAMRA-labeled analogues were dissolved in 1.5 m1 of human blood plasma to a concentration of 10^−5 M and incubated at 37° C. under constant shaking. Samples of 150 μl were taken at different time points and precipitated with 300 μl Ethanol/ACN (1:1) for at least 1 h at −20° C. After centrifugation for 30 s at 12000 rpm, the supernatant was collected and incubated at −20° C. for at least 3 h. Subsequently, it was transferred into Costar® Spin-X® Centrifuge Tube Filters (0.22 μm) and centrifuged for 1 h at 12000 rpm. The samples were analyzed by RP-HPLC using a VariTide RPC column (Agilent Technologies, 250 mm×4.6 mm, […], 200 Å) with linear gradients of 0.1% TFA in water and 0.08% TFA in ACN; fluorescence measurement (λex=525 nm; λem=572 nm) was used for the detection of the analogues and their N-terminal fragments. The percentage of intact peptide was determined by peak integration. The values of peaks containing additional cleavage fragments were corrected by comparing intensities of cleavage fragments and intact peptide using MALDI-MS analysis (UltraflexIII, Bruker). The stability of the peptides was calculated with GraphPad Prism 5 (GraphPad Software) using a two phase exponential decay function for the determination of slow-decay phase half-lives (ln(2)/Kslow; Kslow: rate constant of slow part of exponential decay).

CC[C@H](C)[C@H](NC(=O)[C@H](CCC(N)=O)NC(=O)[C@H](Cc1c[nH]cn1)NC(=O)[C@H](C)NC(=O)[C@H](CC(C)C)NC(=O)[C@H](CCCCN)NC(=O)[C@H](CCC(N)=O)NC(=O)[C@@H](NC(=O)[C@@H](NC(=O)[C@@H]1CSSC[C@H](NC(=O)CNC(=O)CNC(=O)c2ccc3c(c2)C2(OC3=O)c3ccc(N(C)C)cc3Oc3cc(N(C)C)ccc32)C(=O)N[C@@H](CCCNC(=N)N)C(=O)N[C@@H](Cc2ccccc2)C(=O)NCC(=O)N[C@@H]([C@@H](C)O)C(=O)N1)[C@@H](C)O)C(C)C)C(=O)N[C@@H](Cc1ccc(O)cc1)C(=O)N[C@@H](CCC(N)=O)C(=O)N[C@@H](Cc1ccccc1)C(=O)N[C@H](C(=O)N[C@@H](CC(=O)O)C(=O)N[C@@H](CCCCN)C(=O)N[C@@H](CC(=O)O)C(=O)N[C@@H](CCCCN)C(=O)N[C@@H](CC(=O)O)C(=O)N[C@@H](CC(N)=O)C(=O)N[C@H](C(=O)N[C@@H](C)C(=O)N1CCC[C@H]1C(=O)N[C@@H](CCCNC(=N)N)C(=O)N[C@@H](CO)C(=O)N[C@@H](CCCCN)C(=O)N[C@H](C(=O)N[C@@H](CO)C(=O)N1CCC[C@H]1C(=O)N[C@@H](CCC(N)=O)C(=O)NCC(=O)N[C@@H](Cc1ccc(O)cc1)C(N)=O)[C@@H](C)CC)C(C)C)[C@@H](C)O [TAM-control, reference compound]
half-life: 12 h
